From ChEMBL document CHEMBL5346925, “3,4-Dihydrobenzo[e][1,2,3]oxathiazine 2,2-dioxide analogs act as potential AMPA receptor potentiators with antidepressant activity” (Eur J Med Chem, 2023)
pEC50: −log10 of the molar value.

biological target: T1, Glutamate receptor ionotropic, AMPA (Rattus norvegicus) (UniProt P19491+P19492+P19493+P19490); test: Agonist activity at AMPA receptor in rat Primary neuron cells assessed as increase in fluorescence level at 1 uM incubated for 1 hr by calcium 2+ influx assay relative to s-AMPA coupled TAK-137; assay type: cell-based; conditions: not given

SMILES	Activity
COc1ccc(-c2ccc(-c3cccc4c3OS(=O)(=O)NC4C)cc2)cc1 (stereo unspecified)	2.1%
CC(C)(C)c1ccc(-c2ccc(-c3cccc4c3OS(=O)(=O)NC4)cc2)cc1	-2%
CC1NS(=O)(=O)Oc2c(-c3ccc(-c4ccccc4F)cc3)cccc21 (stereo unspecified)	10.5%
O=S1(=O)NCc2cccc(-c3ccc(-c4ccccc4)cc3)c2O1	6.2%
CC1NS(=O)(=O)Oc2c(-c3ccc(-c4ccc(F)cc4)cc3)cccc21 (stereo unspecified)	3.7%
O=S1(=O)NCc2cccc(-c3ccc(-c4ccc(C(F)(F)F)cc4)cc3)c2O1	0.8%
O=S1(=O)NCc2cccc(-c3ccc4c(c3)OCO4)c2O1	17.1%
O=S1(=O)NCc2cccc(-c3ccc(F)cc3)c2O1	36.5%
O=S1(=O)NCc2cccc(-c3ccc(-c4ccc(C(F)F)cc4)cc3)c2O1	7.2%
O=S1(=O)NCc2cccc(-c3ccc(OC(F)(F)F)cc3)c2O1	1.4%
O=S1(=O)NCc2cccc(-c3ccc(C(F)(F)F)cc3)c2O1	14%
O=S1(=O)NCc2cc(-c3ccc(Oc4ccccc4)cc3)ccc2O1	0.5%
CC(C)(C)c1ccc(-c2cccc3c2OS(=O)(=O)NC3)cc1	29.4%
Cc1ccc(-c2ccc(-c3cccc4c3OS(=O)(=O)NC4C)cc2)cc1 (stereo unspecified)	0.1%
O=S1(=O)NCc2cccc(-c3ccc(-c4ccc(OC(F)(F)F)cc4)cc3)c2O1	-1.5%

Second part, the compound after the results:

Activity	SMILES
2.5%	O=S1(=O)NCc2cccc(-c3ccc(-c4ccc(F)c(F)c4)cc3)c2O1
2.1%	COc1ccccc1-c1ccc(-c2cccc3c2OS(=O)(=O)NC3)cc1
2.5%	COc1cccc(-c2ccc(-c3cccc4c3OS(=O)(=O)NC4)cc2)c1
1.4%	Cc1ccc(-c2ccc(-c3cccc4c3OS(=O)(=O)NC4)c(F)c2)cc1
3.5%	Cc1ccc(-c2ccc(-c3cccc4c3OS(=O)(=O)NC4)cc2)cc1
3.2%	COc1ccc(-c2ccc(-c3cccc4c3OS(=O)(=O)NC4)c(F)c2)cc1
7.3%	Cc1ccc(-c2cccc3c2OS(=O)(=O)NC3)cc1

biological target: T1, Glutamate receptor ionotropic, AMPA (Rattus norvegicus); test: Agonist activity at AMPA receptor in rat Primary neuron cells assessed as potentiation of s-AMPA induced calcium flux at 1 uM incubated for 1 hr by calcium 2+ influx assay relative to s-AMPA coupled TAK-137; assay type: cell-based; conditions: not given

SMILES	Activity
O=S1(=O)NCc2cccc(-c3ccc(-c4ccc(F)c(F)c4)cc3)c2O1	38.7%
CC(C)(C)c1ccc(-c2ccc(-c3cccc4c3OS(=O)(=O)NC4)cc2)cc1	-1.3%
O=S1(=O)NCc2cccc(-c3ccc(-c4ccc(C(F)(F)F)cc4)cc3)c2O1	0.7%
O=S1(=O)NCc2cccc(-c3ccc(-c4ccc(C(F)F)cc4)cc3)c2O1	23.9%
O=S1(=O)NCc2cc(-c3ccc(Oc4ccccc4)cc3)ccc2O1	1.4%
O=S1(=O)NCc2cccc(-c3ccc(-c4ccc(OC(F)(F)F)cc4)cc3)c2O1	-3%

same assay, conditions: filed as agonist

SMILES	Activity
COc1ccc(-c2ccc(-c3cccc4c3OS(=O)(=O)NC4C)cc2)cc1 (stereo unspecified)	50.7%
CC1NS(=O)(=O)Oc2c(-c3ccc(-c4ccccc4F)cc3)cccc21 (stereo unspecified)	69.2%
O=S1(=O)NCc2cccc(-c3ccc(-c4ccccc4)cc3)c2O1	69.6%
CC1NS(=O)(=O)Oc2c(-c3ccc(-c4ccc(F)cc4)cc3)cccc21 (stereo unspecified)	59.6%
O=S1(=O)NCc2cccc(-c3ccc4c(c3)OCO4)c2O1	92%
O=S1(=O)NCc2cccc(-c3ccc(F)cc3)c2O1	48%
O=S1(=O)NCc2cccc(-c3ccc(OC(F)(F)F)cc3)c2O1	72.2%
O=S1(=O)NCc2cccc(-c3ccc(C(F)(F)F)cc3)c2O1	81.3%
CC(C)(C)c1ccc(-c2cccc3c2OS(=O)(=O)NC3)cc1	106%
Cc1ccc(-c2ccc(-c3cccc4c3OS(=O)(=O)NC4C)cc2)cc1 (stereo unspecified)	55.3%

Second part, the compound after the results:

Activity	SMILES
83.8%	COc1ccccc1-c1ccc(-c2cccc3c2OS(=O)(=O)NC3)cc1
56.4%	COc1cccc(-c2ccc(-c3cccc4c3OS(=O)(=O)NC4)cc2)c1
40.7%	Cc1ccc(-c2ccc(-c3cccc4c3OS(=O)(=O)NC4)c(F)c2)cc1
66%	Cc1ccc(-c2ccc(-c3cccc4c3OS(=O)(=O)NC4)cc2)cc1
67.9%	COc1ccc(-c2ccc(-c3cccc4c3OS(=O)(=O)NC4)c(F)c2)cc1
81.7%	Cc1ccc(-c2cccc3c2OS(=O)(=O)NC3)cc1

biological target: Glutamate receptor ionotropic, AMPA (Rattus norvegicus, UniProt P19490+P19491+P19492+P19493); test: Agonist activity at AMPA receptor in rat Primary neuron cells; assay type: cell-based; conditions: not given

SMILES	pEC50
COc1ccccc1-c1ccc(-c2cccc3c2OS(=O)(=O)NC3)cc1	6.42

biological target: T1, Glutamate receptor ionotropic, AMPA (Rattus norvegicus); test: Agonist activity at AMPA receptor in rat Primary neuron cells relative to control; assay type: cell-based; conditions: filed as agonist

SMILES	Emax
COc1ccccc1-c1ccc(-c2cccc3c2OS(=O)(=O)NC3)cc1	125%
